Test results as given in publication PMC6410080 (Viruses, 2019).
pIC50: −log10 of the molar value. Where a name gives a salt, the structure may show the parent alone. Read-outs that look alike come from different tables or passages of the source.

What was measured:
DENV-2 = DENV-2 infection assay / secondary screen (E protein staining); type: cell-based, dengue virus serotype 2; settings: for inhibition at 10 µM: Dengue virus, DENV2, Huh-7, 24 h, read-out: % inhibition (DENV-2 screen)
HeLa Kyoto cells [1] = settings: 10 µM
SFV = test: microbe, parasite or virus in culture; type: cell-based, Semliki Forest virus; settings: for % inhibition (SFV screen): 10 µM; for inhibition at 10 µM / pIC50: Semliki Forest virus; for inhibition at 10 µM: M-HeLa, read-out: % inhibition (SFV screen); for pIC50: HeLa Kyoto
in vitro [2] = settings: human
in vitro [3] = settings: human; remark: listed apart in the source
Huh7 cells = settings: 10 µM, Huh7, 24 h, compared to DMSO-treated controls
HeLa Kyoto cells [4] = settings: human
[5] = tested on: Renilla luciferase expression (protein synthesis); type: cell-based

Row | SMILES | inhibition at 10 µM (DENV-2) [%] | inhibition at 10 µM (SFV; 7 h) [%] | viability at 10 µM (in vitro [2]) [%] | viability at 10 µM (in vitro [3]; % viability (SFV screen)) [%] | other results
1 | Nc1ncn([C@@H]2O[C@H](CO)[C@@H](O)[C@H]2O)c(=O)n1 [5-azacytidine] | 9.67 | 99.8 | 106 | 75.5 | % viability (SFV screen) (HeLa Kyoto cells [1]; human): 75.30%; % inhibition (SFV screen) (SFV): 101.05%
2 | Nc1ncnc2c1ncn2[C@@H]1O[C@H](COP(=O)(O)O)[C@@H](O)[C@H]1O [Adenosine 5'-monophosphate monohydrate] | -177 | 73.4 | 105 | 86.8 | 
3 | Nc1c2ccccc2nc2ccccc12 [Aminacrine] |  | 89.2 | 23.3 | 87.4 | 
4 | Cl.Cn1c(CCCC(=O)O)nc2cc(N(CCCl)CCCl)ccc21 [Bendamustine hydrochloride] |  |  |  |  | % inhibition (DENV-2 screen) (DENV-2; 10 µM): 56.91%; % viability (SFV screen) (HeLa Kyoto cells [1]): 76.50%; % inhibition (SFV screen) (SFV): 104.91%; % viability (DENV-2 screen) (Huh7 cells): 85.62%
5 | [H]/N=C(\N/C(=N/[H])NCCCCCCNC(=N)NC(=N)Nc1ccc(Cl)cc1)Nc1ccc(Cl)cc1 [Chlorhexidine] |  | 96.6 | 16.6 | 96.2 | 
6 | CCN(CC)CCOc1ccc(C(=C(Cl)c2ccccc2)c2ccccc2)cc1 [Clomiphene, Clomiphene citrate (Z,E)] | 99.3 | 77.8 | 41.8 | 97.1 | TC50 SFV (7h) (HeLa Kyoto cells [4]): 27400 µM
7 | C[C@@H]1C[C@@H]([C@H](O)CC2CC(=O)NC(=O)C2)C(=O)[C@@H](C)C1 [Cycloheximide] | 64.5 | 99.9 |  |  | viability at 24 h, 10 µM (in vitro [2]): 60.1%; viability at 10 µM (in vitro [3]): 94%
8 | CC[C@H]1CN2CCc3cc(OC)c(OC)cc3[C@@H]2C[C@@H]1C[C@H]1NCCc2cc(OC)c(OC)cc21 [Emetine dihydrochloride hydrate] | 100 | 104 | 51.2 | 104 | Renilla signal (in words) [5]: significantly reduced the Renilla signal
9 | Nc1ccn([C@@H]2O[C@H](CO)[C@@H](O)C2(F)F)c(=O)n1 [Gemcitabine] | -137 | 67 | 61.8 | 102 | 
10 | CCCCN(CCCC)CCC(O)c1cc2c(Cl)cc(Cl)cc2c2cc(C(F)(F)F)ccc12 (centres unmarked) [Halofantrine, Halofantrine hydrochloride] | 83.6 | 102 | 89.4 | 96.9 | pIC50 (SFV; 7 h, read-out: IC50 SFV): 3.94; pIC50 (SFV; read-out: IC50 SFV (7 h)): < 4.00; TC50 SFV (7h) (HeLa Kyoto cells [4]): 290400 µM
11 | Clc1cc(Cl)c(OCC#CI)cc1Cl [Haloprogin] | 1.64 | 99.8 | 104 | 75.4 | 
12 | c1ccc2c(c1)OCC(C1=NCCN1)O2 (centres unmarked) [Idazoxan hydrochloride] | 48.8 | 94.5 | 71.2 | 67.6 | 
13 | CN[C@@H]1C[C@@H](c2ccc(Cl)c(Cl)c2)c2ccccc21 [Indatraline hydrochloride] |  | 72.2 | 1.66 | 76.4 | 
